Columns and labels:
HEK293 cells = test: MTT cell viability assay, HEK293; assay type: cell-based; conditions: Homo sapiens, Table S2
Method: Initially, all synthesized acridone derivatives were evaluated for their cytotoxicity potential on MCF-7, HepG2 and HEK293 cell lines by MTT assay. These synthesized acridone derivatives were screened in the concentration range of 0–200 µM, for 24 and 48 h. […] It was also interesting that in the studied […] concentration range these compounds don’t show considerable cytotoxicity towards HEK293 cell lines. […] Thus, compounds 5, 7b, 7d, 7f and 7h were taken for further cell based studies such as apoptosis and reactive oxygen species (ROS) production.
To study the effect of synthesized acridone derivatives on cell viability and proliferation, a standard MTT method was carried out. Cells were plated (8000–9000/well) in a 96-well plate and incubated overnight. On the next day, cells were treated with increasing concentrations (0.1–80 μM) of synthesized acridone derivatives in a final volume of 200 µl for 48 h at 37 °C in a humidified chamber. At the end of treatment time point, 20 µl of MTT solution (from 5 mg/ml stock solution in phosphate buffer saline, pH 7.4) was added to each well and incubated further for 4–5 h at 37 °C in the CO2 incubator. After stipulated time the supernatant was aspirated and the colored formazan crystal produced as a result of MTT reduction was dissolved in 100 µl of DMSO. The absorbance (A) of colored product was then measured at 570 nm on a multiplate ELISA reader (BioRad). The percentage of viable cells was calculated and used to estimate the IC50 (50% inhibitory concentration) values for each acridone derivative. For cell proliferation studies paclitaxel has been taken as positive control.

MCF-7 cells = test: Annexin-V apoptosis assay by flow cytometry; assay type: cell-based, human; conditions: IC50 concentration, 24 h, annexin-V staining
Method: Evasion of apoptosis is a striking hallmark of cancerous cells, it is an essential process that regulates abnormal growth of cells, but compromised signaling helps the cancerous cells to escape apoptosis. MARK4 overexpression also supports the growth and evasion of cancerous cells. Thus, the probability of apoptosis induction by inhibiting MARK4 was studied. The MCF-7 cells were serum starved and treated with IC50 concentration of each acridone derivative for 24 h and subsequently annexin-V staining was used to assess the apoptotic potential of these compounds.
Figure 6 MARK4 inhibition by selected acridone derivatives induces apoptosis, elicited oxidative stress by inducing ROS production in MCF-7 cells. MCF-7 cells were treated with IC50 concentrations of each compound for 24 h and processed for apoptosis analysis using Annexin V-7AAD apoptosis kit by flow cytometry. (A) Quadrants showing the anti-FITC-Annexin-V stained cells after the treatment of each compound as indicated. (B) Bar graphs represents the percentage of apoptotic MCF-7 cells attained with Annexin-V for duplicate measurements ± SD. **p < 0.001, as compared to control (untreated cells). (For anticancer activities paclitaxel has been taken as positive control). (C) Histogram showing the fluorescence emission intensity of DCF as measured by flow cytometry, MCF-7 cells were treated with IC50 concentrations of each compound for 5–6 h and processed for ROS measurements using DCFDA staining and were quantified by flow cytometry. (D) Representative images of MCF-7 cells stained with DCFDA captured on fluorescence microscope (20 X original magnification) for the assessment of ROS after the treatment of respective compound and intensity of green color represents the levels of ROS.
Annexin-V staining was used to analyse the apoptotic potential of synthesized acridone derivatives as described previously[47],[48]. Briefly, MCF-7 cells were dosed with IC50 concentration of selected acridone derivative for 24 h at 37 °C. The control cells were treated with media only. After 24 h treatment, nearly 2.0–2.5 × 10^6 cells were trypsinized and collected by centrifuging the cell suspension at 1800 rpm for 4 min. Collected cells were washed two times with 5 ml of PBS. Finally, cells were stained with FITC labeled Annexin-V antibodies using FITC-Annexin-V kit according to the manufacturer’s guidelines (BD-Biosciences, USA). Approximately, 10,000 events were analyzed for each sample through flow cytometry on BD LSR II Flow Cytometry Analyzer and FlowJo.

Structure (SMILES): COC(=O)Cn1c2ccccc2c(=O)c2cc(C)ccc21 [Compound 5, Methyl 2-(2-methyl-9-oxoacridin-10(9H)-yl)acetate]
- IC50 (HEK293 cells): > 200 µM
- apoptosis induced in MCF-7 cells (MCF-7 cells): 17.91%

Structure (SMILES): Cc1ccc2c(c1)c(=O)c1ccccc1n2CC(=O)NCc1ccccc1 [Compound 7b, N-benzyl-2-(2-methyl-9-oxoacridin-10(9H)-yl)acetamide]
- IC50 (HEK293 cells): > 200 µM
- apoptosis induced in MCF-7 cells (MCF-7 cells): 69.23%

Structure (SMILES): COc1ccc(CNC(=O)Cn2c3ccccc3c(=O)c3cc(C)ccc32)cc1 [Compound 7d, N-(4-methoxybenzyl)-2-(2-methyl-9-oxoacridin-10(9H)-yl)acetamide]
- IC50 (HEK293 cells): > 200 µM
- apoptosis induced in MCF-7 cells (MCF-7 cells): 43.10%

Structure (SMILES): COc1ccccc1NC(=O)Cn1c2ccccc2c(=O)c2cc(C)ccc21 [Compound 7h, N-(2-methoxyphenyl)-2-(2-methyl-9-oxoacridin-10(9H)-yl)acetamide]
- IC50 (HEK293 cells): > 200 µM
- apoptosis induced in MCF-7 cells (MCF-7 cells): 21.53%

Structure (SMILES): Cc1ccc(NC(=O)Cn2c3ccccc3c(=O)c3cc(C)ccc32)cc1 [Compound 7f, 2-(2-Methyl-9-oxoacridin-10(9H)-yl)-N-(p-tolyl)acetamide]
- IC50 (HEK293 cells): > 200 µM
- apoptosis induced in MCF-7 cells (MCF-7 cells): 41.35%

Reference: article PMC6368574, “Probing the Inhibition of Microtubule Affinity Regulating Kinase 4 by N-Substituted Acridones” (Scientific Reports, 2019)
